US7132258B1, “Nucleic acid encoding vitamin D receptor related polypeptide” (University of Massachusetts, priority 1998, dated 2006)
“Also recorded” adds a separate entry of the source.

Tested on: RAC3 message
Test: Northern blot analysis of RAC3 expression in HL-60 cells
Type: cell-based, human
Protocol: The expression of RAC3 was examined with Northern blot analysis using standard methods. A single message of about 7.5 kb was detected in human HL60 cells as well as in mouse embryonic tissues. […] Thus, a positive feedback regulatory network may operate in which RAC3 binding to RA-RAR complex activates transcription which, in turn, increases transcription of RAC3.
Cells were treated with different concentration of RA (0, 10, 100, 1000 nM) for a period of 12 hours. In the control group, cells were treated with equal volume of solvent (80% EtOH plus 20% DMSO). Total RNAs were isolated using an RNA isolation kit (RNAzol) and separated on a 1% agarose gel with 2.2 M formaldehyde and blotted onto nylon filters. Filters were hybridized with random-primed ^32P-labeled DNA probes specific for RAC3, Tw2, and SRC1 in hybridization buffer (50% formamide, SX SSPE [1×SSPE is 0.18 M NaCl, 10 mM NaPO4, and 1 mM EDTA at pH 7.7], 2× Denhardt solution, 0.1% SDS, 0.1 mg of sheared herring sperm DNA per ml) at 42° C. overnight. […]
The expression patterns of RAC3 in different human tissues and cancer cells were examined and compared with that of SRC-1 and TIF2. […] Total RNA (20 μg) of HL-60 cells treated with indicated concentrations of atRA for 12 hours or with 1 μM tRA plus 10 μM cycloheximide (CHX) were analyzed for RAC3 message by Northem blot analysis. […]

Compound | expression of RAC3 (HL60 cells treated with atRA) | effect on stimulation of RAC3 expression by atRA (HL60 cells, addition of cycloheximide)
CC1=C(/C=C/C(C)=C/C=C/C(C)=C/C(=O)O)C(C)(C)CCC1 [atRA, all-trans retinoic acid] | up-regulated; also recorded: significantly enhances | 
C[C@@H]1C[C@@H]([C@H](O)CC2CC(=O)NC(=O)C2)C(=O)[C@@H](C)C1 [cycloheximide] |  | does not have an effect
